Data: ChEMBL document CHEMBL1909046, “DrugMatrix in vitro pharmacology data”

Key:
[1] = target: Adenosine receptor A2a (Homo sapiens, UniProt P29274); test: DRUGMATRIX: Adenosine A2A radioligand binding (ligand: […]); format: cell membranes, HEK293, Membrane; conditions: hek293; Not Active = under 50% inhibition at 10 µM
[2] = target: Sigma non-opioid intracellular receptor 1 (Homo sapiens, UniProt Q99720); test: DRUGMATRIX: Sigma1 radioligand binding (ligand: [3H] Haloperidol); format: cell membranes, Jurkat, Membrane; conditions: jurkat; Not Active = under 50% inhibition at 10 µM
Sequence of Sigma non-opioid intracellular receptor 1 (Q99720 whole entry): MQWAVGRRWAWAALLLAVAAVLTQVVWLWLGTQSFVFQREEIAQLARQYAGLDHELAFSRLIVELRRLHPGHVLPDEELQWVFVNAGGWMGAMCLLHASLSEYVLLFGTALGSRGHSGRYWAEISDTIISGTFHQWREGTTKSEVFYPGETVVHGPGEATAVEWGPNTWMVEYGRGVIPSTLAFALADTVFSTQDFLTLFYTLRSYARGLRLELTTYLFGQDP

[3] = target: C-C chemokine receptor type 2 (Homo sapiens, UniProt P41597); format: cell membranes, CHO-K1, Membrane; conditions: cho-k1; note: in other assays of this panel Not Active means under 50% inhibition at 10 µM
Sequence of C-C chemokine receptor type 2 (P41597 whole entry): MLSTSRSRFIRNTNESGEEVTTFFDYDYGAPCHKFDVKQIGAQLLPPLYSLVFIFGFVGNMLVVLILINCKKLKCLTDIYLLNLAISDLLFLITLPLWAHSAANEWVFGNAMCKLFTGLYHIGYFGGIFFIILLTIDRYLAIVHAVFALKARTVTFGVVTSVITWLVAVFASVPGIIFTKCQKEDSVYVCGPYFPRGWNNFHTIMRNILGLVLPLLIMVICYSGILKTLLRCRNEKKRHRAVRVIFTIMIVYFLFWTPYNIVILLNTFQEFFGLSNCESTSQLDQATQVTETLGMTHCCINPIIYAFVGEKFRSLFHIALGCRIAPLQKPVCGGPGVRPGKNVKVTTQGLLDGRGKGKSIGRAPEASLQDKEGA

[4] = target: Platelet-activating factor receptor (Homo sapiens, UniProt P25105); test: biochemical; format: tissue-based; conditions: platelet; note: in other assays of this panel Not Active means under 50% inhibition at 10 µM
Sequence of Platelet-activating factor receptor (P25105 whole entry): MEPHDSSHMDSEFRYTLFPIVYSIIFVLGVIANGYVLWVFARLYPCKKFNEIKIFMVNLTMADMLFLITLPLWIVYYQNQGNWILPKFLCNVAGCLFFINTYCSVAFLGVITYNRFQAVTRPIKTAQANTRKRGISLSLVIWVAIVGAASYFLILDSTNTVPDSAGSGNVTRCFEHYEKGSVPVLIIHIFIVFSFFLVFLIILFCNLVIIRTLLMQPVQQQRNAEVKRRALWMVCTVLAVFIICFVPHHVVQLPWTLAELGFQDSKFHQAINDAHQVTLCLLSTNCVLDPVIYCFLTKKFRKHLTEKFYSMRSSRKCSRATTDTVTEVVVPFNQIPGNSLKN

[5] = target: 5-hydroxytryptamine receptor 2B (Homo sapiens, UniProt P41595); format: cell membranes, CHO-K1, Membrane; conditions: cho-k1; note: in other assays of this panel Not Active means under 50% inhibition at 10 µM
Sequence of 5-hydroxytryptamine receptor 2B (P41595 whole entry): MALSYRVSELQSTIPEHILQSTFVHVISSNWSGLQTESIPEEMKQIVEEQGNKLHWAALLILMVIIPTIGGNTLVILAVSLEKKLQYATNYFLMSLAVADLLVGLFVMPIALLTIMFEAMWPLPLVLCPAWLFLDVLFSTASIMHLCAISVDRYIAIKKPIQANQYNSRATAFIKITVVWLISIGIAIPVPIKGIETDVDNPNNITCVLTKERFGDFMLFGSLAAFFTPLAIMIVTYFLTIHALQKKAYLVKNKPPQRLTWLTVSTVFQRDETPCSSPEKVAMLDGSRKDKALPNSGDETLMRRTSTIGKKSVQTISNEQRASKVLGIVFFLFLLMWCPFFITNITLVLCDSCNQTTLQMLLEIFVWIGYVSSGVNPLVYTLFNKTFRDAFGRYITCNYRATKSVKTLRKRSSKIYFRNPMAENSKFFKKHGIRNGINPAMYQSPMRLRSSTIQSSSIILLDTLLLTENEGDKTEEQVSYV

[6] = target: T1, Progesterone receptor (Bos taurus, UniProt Q690N0); test: DRUGMATRIX: Progesterone radioligand binding (ligand: [3H] R-5020); format: tissue-based, Uterus; conditions: Not Active = under 50% inhibition at 10 µM
T1 sequence (Q690N0 whole entry): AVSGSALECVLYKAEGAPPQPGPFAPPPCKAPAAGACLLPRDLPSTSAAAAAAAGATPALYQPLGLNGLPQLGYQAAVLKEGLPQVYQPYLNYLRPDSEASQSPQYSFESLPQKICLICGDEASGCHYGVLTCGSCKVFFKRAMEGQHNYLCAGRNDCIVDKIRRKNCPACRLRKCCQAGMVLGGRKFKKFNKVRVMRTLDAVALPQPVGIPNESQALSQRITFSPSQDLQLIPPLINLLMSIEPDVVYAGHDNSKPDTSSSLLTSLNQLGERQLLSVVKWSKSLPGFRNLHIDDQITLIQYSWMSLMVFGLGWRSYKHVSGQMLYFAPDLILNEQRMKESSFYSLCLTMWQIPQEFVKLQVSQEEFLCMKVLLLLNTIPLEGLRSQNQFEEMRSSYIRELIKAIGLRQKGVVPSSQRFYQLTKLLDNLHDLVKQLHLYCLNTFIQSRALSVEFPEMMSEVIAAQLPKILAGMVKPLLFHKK

[7] = target: T2, 3-hydroxy-3-methylglutaryl-coenzyme A reductase (Homo sapiens, UniProt P04035); set-up: species or system Escherichia coli;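 note: enzyme inhibition assay of HMG-CoA reductase using radiolabeled [14C]HMG-CoA as substrate; in other assays of this panel Not Active means under 50% inhibition at 10 µM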
T2 sequence (P04035 whole entry): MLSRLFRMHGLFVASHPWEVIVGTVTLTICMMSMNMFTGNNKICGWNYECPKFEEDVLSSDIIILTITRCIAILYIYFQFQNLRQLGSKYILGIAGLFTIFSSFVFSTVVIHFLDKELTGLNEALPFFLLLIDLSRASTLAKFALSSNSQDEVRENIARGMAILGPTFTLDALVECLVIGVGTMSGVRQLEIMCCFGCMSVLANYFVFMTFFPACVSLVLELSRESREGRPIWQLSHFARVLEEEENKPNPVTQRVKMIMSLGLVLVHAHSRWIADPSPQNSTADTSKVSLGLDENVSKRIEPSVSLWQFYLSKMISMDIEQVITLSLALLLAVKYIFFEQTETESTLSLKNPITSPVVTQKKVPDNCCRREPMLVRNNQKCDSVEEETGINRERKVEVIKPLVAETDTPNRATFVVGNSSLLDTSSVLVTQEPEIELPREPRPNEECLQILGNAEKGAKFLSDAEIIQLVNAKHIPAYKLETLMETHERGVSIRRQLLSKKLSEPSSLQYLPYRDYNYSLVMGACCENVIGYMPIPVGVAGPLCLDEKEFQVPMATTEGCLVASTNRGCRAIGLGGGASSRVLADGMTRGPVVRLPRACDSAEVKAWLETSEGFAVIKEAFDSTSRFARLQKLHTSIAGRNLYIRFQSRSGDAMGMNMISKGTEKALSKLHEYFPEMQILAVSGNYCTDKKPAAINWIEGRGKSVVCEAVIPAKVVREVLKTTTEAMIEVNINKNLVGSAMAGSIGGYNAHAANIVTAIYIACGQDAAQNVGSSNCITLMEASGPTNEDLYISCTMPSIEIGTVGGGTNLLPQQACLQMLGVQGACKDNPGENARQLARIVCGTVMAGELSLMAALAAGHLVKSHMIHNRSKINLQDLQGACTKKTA

[8] = target: T3, Neuropeptide Y receptor type 2 (Homo sapiens, UniProt P49146); format: cell membranes, Membrane; conditions: kan-ts; note: in other assays of this panel Not Active means under 50% inhibition at 10 µM
T3 sequence (P49146 whole entry): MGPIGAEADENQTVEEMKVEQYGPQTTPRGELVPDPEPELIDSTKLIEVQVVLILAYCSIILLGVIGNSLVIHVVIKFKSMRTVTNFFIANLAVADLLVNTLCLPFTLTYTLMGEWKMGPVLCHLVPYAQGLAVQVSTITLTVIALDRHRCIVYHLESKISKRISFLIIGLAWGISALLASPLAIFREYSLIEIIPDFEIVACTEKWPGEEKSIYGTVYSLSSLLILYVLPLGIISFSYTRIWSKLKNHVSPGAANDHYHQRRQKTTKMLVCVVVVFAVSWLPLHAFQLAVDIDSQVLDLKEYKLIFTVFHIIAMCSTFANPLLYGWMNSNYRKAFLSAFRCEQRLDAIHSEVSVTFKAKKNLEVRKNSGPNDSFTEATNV

[9] = target: Acetylcholinesterase (Homo sapiens, UniProt P22303); test: DRUGMATRIX: Acetylcholinesterase enzyme inhibition (substrate: acetylthiocholine); format: cell-based, HEK293; conditions: hek293; Not Active = under 50% inhibition at 10 µM
Sequence of Acetylcholinesterase (P22303 whole entry): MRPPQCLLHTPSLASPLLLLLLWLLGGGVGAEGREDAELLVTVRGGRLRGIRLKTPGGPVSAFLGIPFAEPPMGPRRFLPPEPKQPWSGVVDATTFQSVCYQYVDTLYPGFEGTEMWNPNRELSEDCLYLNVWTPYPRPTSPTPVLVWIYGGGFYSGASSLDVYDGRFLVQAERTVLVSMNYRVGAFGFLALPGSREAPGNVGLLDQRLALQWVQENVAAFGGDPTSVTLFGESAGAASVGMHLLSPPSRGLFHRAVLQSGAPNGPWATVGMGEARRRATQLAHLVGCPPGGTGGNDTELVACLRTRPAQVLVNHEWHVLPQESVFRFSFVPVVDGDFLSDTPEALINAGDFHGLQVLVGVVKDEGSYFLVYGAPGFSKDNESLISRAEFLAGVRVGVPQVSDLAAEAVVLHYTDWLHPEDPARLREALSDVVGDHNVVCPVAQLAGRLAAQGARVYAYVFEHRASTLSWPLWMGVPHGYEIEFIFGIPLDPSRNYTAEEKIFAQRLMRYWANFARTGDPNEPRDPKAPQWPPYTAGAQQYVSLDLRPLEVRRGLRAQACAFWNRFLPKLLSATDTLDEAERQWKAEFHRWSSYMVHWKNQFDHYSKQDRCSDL

[10] = DRUGMATRIX: Imidazoline I2, Central radioligand binding (ligand: [3H] Idazoxan); format: cell membranes, Rattus norvegicus, Wistar, Cerebral cortex, Membrane; conditions: Not Active = under 50% inhibition at 10 µM
[11] = DRUGMATRIX: Phosphodiesterase PDE4 enzyme inhibition (substrate: [3H]cAMP + cAMP); conditions: u-937; Not Active = under 50% inhibition at 10 µM
[12] = target: Protein phosphatase 3 catalytic subunit alpha (Homo sapiens, UniProt Q08209); set-up: species or system Escherichia coli

Sequence of Adenosine receptor A2a (P29274 whole entry): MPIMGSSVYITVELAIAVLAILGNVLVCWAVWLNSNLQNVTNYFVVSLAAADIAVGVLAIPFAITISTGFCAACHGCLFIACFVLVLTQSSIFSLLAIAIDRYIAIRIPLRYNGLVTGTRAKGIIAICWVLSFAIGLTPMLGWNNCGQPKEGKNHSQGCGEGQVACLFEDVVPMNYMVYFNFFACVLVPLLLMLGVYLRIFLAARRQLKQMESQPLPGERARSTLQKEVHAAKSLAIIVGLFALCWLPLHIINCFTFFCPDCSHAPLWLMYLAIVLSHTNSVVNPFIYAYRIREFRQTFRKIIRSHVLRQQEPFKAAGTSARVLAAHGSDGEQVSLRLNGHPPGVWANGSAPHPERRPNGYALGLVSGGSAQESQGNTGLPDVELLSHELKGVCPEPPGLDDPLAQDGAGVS

COc1ccc2c(c1)c(CC(=O)OCC(=O)O)c(C)n2C(=O)c1ccc(Cl)cc1 [ACEMETACIN]
Not Active: IC50 [1] | IC50 [2] | IC50 [3] | IC50 [4] | IC50 [5] | IC50 [6] | IC50 [7] | IC50 [8] | IC50 [9] | IC50 [10] | Ki [10] | IC50 [11] | Ki [11] | IC50 [12]

CCCSc1ccc2nc(NC(=O)OC)[nH]c2c1 [ALBENDAZOLE]
Not Active: IC50 [1] | IC50 [2] | IC50 [3] | IC50 [4] | IC50 [5] | IC50 [6] | IC50 [7] | IC50 [8] | IC50 [9] | IC50 [10] | Ki [10] | IC50 [11] | Ki [11] | IC50 [12]

NCC[C@H](O)C(=O)N[C@@H]1C[C@H](N)[C@@H](O[C@H]2O[C@H](CN)[C@@H](O)[C@H](O)[C@H]2O)[C@H](O)[C@H]1O[C@H]1O[C@H](CO)[C@@H](O)[C@H](N)[C@H]1O [AMIKACIN]
Not Active: IC50 [1] | IC50 [2] | IC50 [3] | IC50 [4] | IC50 [5] | IC50 [6] | IC50 [7] | IC50 [8] | IC50 [9] | IC50 [10] | Ki [10] | IC50 [11] | Ki [11] | IC50 [12]

CC1(C)S[C@@H]2[C@H](NC(=O)[C@H](N)c3ccc(O)cc3)C(=O)N2[C@H]1C(=O)O [AMOXICILLIN]
Not Active: IC50 [1] | IC50 [2] | IC50 [3] | IC50 [4] | IC50 [5] | IC50 [6] | IC50 [7] | IC50 [8] | IC50 [9] | IC50 [10] | Ki [10] | IC50 [11] | Ki [11] | IC50 [12]

CCOC(=O)OC(C)OC1=C(C(=O)Nc2ccccn2)N(C)S(=O)(=O)c2ccccc21 (stereo not given) [AMPIROXICAM]
Not Active: IC50 [1] | IC50 [2] | IC50 [3] | IC50 [4] | IC50 [5] | IC50 [6] | IC50 [7] | IC50 [8] | IC50 [9] | IC50 [10] | Ki [10] | IC50 [11] | Ki [11] | IC50 [12]

N#C[C@H](O[C@@H]1O[C@H](CO[C@@H]2O[C@H](CO)[C@@H](O)[C@H](O)[C@H]2O)[C@@H](O)[C@H](O)[C@H]1O)c1ccccc1 [AMYGDALIN]
Not Active: IC50 [1] | IC50 [2] | IC50 [3] | IC50 [4] | IC50 [5] | IC50 [6] | IC50 [7] | IC50 [8] | IC50 [9] | IC50 [10] | Ki [10] | IC50 [11] | Ki [11] | IC50 [12]

N=C(N)NCCCCNC(=N)N.O=S(=O)(O)O [ARCAINE SULFATE]
Not Active: IC50 [1] | IC50 [2] | IC50 [3] | IC50 [4] | IC50 [5] | IC50 [6] | IC50 [7] | IC50 [8] | IC50 [9] | IC50 [10] | Ki [10] | IC50 [11] | Ki [11] | IC50 [12]

C=C1[C@@H]2CCC3[C@@](CC[C@@H]4[C@H](C(=O)O)C[C@@H](O[C@@H]5O[C@H](CO)[C@@H](OS(=O)(=O)[O-])[C@H](OS(=O)(=O)[O-])[C@H]5OC(=O)CC(C)C)C[C@@]34C)(C2)[C@@H]1O.[K+].[K+] (stereo not given in full) [ATRACTYLOSIDE]
Not Active: IC50 [1] | IC50 [2] | IC50 [3] | IC50 [4] | IC50 [5] | IC50 [6] | IC50 [7] | IC50 [8] | IC50 [9] | IC50 [10] | Ki [10] | IC50 [11] | Ki [11] | IC50 [12]

Cn1cnc([N+](=O)[O-])c1Sc1ncnc2nc[nH]c12 [AZATHIOPRINE]
Not Active: IC50 [1] | IC50 [2] | IC50 [3] | IC50 [4] | IC50 [5] | IC50 [6] | IC50 [7] | IC50 [8] | IC50 [9] | IC50 [10] | Ki [10] | IC50 [11] | Ki [11] | IC50 [12]

CC1(C)S[C@@H]2[C@H](NC(=O)[C@H](NC(=O)N3CCNC3=O)c3ccccc3)C(=O)N2[C@H]1C(=O)O [AZLOCILLIN]
Not Active: IC50 [1] | IC50 [2] | IC50 [3] | IC50 [4] | IC50 [5] | IC50 [6] | IC50 [7] | IC50 [8] | IC50 [9] | IC50 [10] | Ki [10] | IC50 [11] | Ki [11] | IC50 [12]
